Where a name gives a salt, the structure may show the parent alone.
Target: T1, Aβ 1-40 (Homo sapiens, UniProt P05067)
T1 construct: ThT aggregation assays of Aβ 1-40 and alpha synuclein
Test: ThT aggregation assay of Aβ 1-40
Assay type: biochemical
Conditions: not given
Description: The anti-amyloid activity of these compounds was evaluated by ThT aggregation assays of Aβ 1-40 and alpha synuclein, as set forth below. The column “A-Syn” below is a functional ThT aggregation assay of alpha synuclein.

T1 sequence (P05067 672-711 limits assumed): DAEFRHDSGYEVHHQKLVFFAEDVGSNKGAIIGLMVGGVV

| Molecule | IC50 [µM] | Aβ - ThT (IC50/μM) |
| --- | --- | --- |
| CC1=NNC(=O)C1CC(=O)N/N=C/c1cccc(OCc2ccccc2)c1 (centres unmarked) | > 20 |  |
| O=C(CNC(=O)c1ccccc1)N/N=C/c1c[nH]nc1-c1ccccc1 | > 20 |  |
| CC(C)(O)C#Cc1ccc(C(=O)N2CCN(c3ncccn3)CC2)cc1 | > 20 |  |
| CCOC(=O)c1c(NC(=O)c2cccc([N+](=O)[O-])c2C)sc2c1CCC2 | > 20 |  |
| Cc1ccc(N(C)C(=O)C2CC(O)CN2C(=O)OCC(C)C)cc1C (centres unmarked) | > 20 |  |
| Cc1sc(/C=N/NC(=O)c2cccc([N+](=O)[O-])c2)cc1[N+](=O)[O-] | > 20 |  |
| O=[N+]([O-])c1ccc(N2CCCCC2)cc1Nc1ccccc1 |  | INACTIVE |

Target: Aβ (Homo sapiens, UniProt P05067)
Test: not given
Conditions: read-out: Expt (IC50); cited from earlier work

Aβ, sequence (P05067 672-711 limits assumed): as above

| Molecule | IC50 [µM] |
| --- | --- |
| CCCN1C(=CC=CC=Cc2sc3ccccc3[n+]2CCC)Sc2ccccc21 [3,3′-dipropyl thiodicarbocyanine iodine] | 0.3 |
| NCCc1ccc(O)c(O)c1 [dopamine chloride] | 28.6 |

Same assay, conditions: unit not in the table, μM; Masuda test set; read-out: Expt (IC50); cited from earlier work

| Molecule | IC50 [µM] |
| --- | --- |
| O=C(c1ccc(O)cc1O)c1ccc(O)cc1O [2,2′,4,4′-tetrahydroxybenzaphenone] | > 40 |
| O=C(c1ccccc1O)c1ccccc1O [2,2′-dihydroxybenzophenone] | > 40 |
| O=C(c1ccc(O)cc1O)c1ccc(O)c(O)c1O [2,3,4,2′,4′-pentahydroxybenzophenone] | 2.8 |
| O=C(c1ccccc1)c1ccc(O)c(O)c1O [2,3,4-trihydroxybenzophenone] | 3.1 |
| Cc1ccc2nc(-c3ccc(N)cc3)sc2c1 [2-(4-aminophenyl)-6-methylbenzothiazole] | 2 |
| Cc1ccc2nc(-c3ccc(N(C)C)cc3)sc2c1 [2-[4-(dimethylamino)phenyl]-6-methylbenzothiazole] | 2 |
| O=C(c1ccc(O)cc1)c1ccc(O)cc1 [4,4′-dihydroxybenzophenone] | > 40 |
| O=C1NC(=O)c2cc(Nc3ccccc3)c(Nc3ccccc3)cc21 [4,5-dianilinophthalimide] | 2.9 |
| O=c1cc(-c2ccc(O)cc2)oc2cc(O)cc(O)c12 [Apigenin] | > 40 |
| O=C(O)c1cc(/C=C/c2ccc(/C=C/c3ccc(O)c(C(=O)O)c3)c(Br)c2)ccc1O [BSB] | 6.4 |
| Nc1c(/N=N/c2ccc(-c3ccc(/N=N/c4cc(S(=O)(=O)O)c5ccccc5c4N)cc3)cc2)cc(S(=O)(=O)O)c2ccccc12 [Congo red] | 0.9 |
| O=C(O)c1cc(/C=C/c2ccc(/C=C/c3ccc(O)c(C(=O)O)c3)c(F)c2)ccc1O [FSB] | 1.9 |
| O=S(=O)(O)c1ccc2c(N=Nc3ccc(N=Nc4ccccc4)cc3)c(O)c(S(=O)(=O)O)cc2c1 [Ponceau SS] | 1.2 |
| CC(=O)c1ccc2c(c1)N(CCCN(C)C)c1ccccc1S2 [acetopromazine maleate salt] | > 40 |
| C[C@@H]1[C@H](O)[C@@H](C)/C=C/C=C/C=C/C=C/C=C/C=C/C=C/[C@H](O[C@@H]2O[C@H](C)[C@@H](O)[C@H](N)[C@@H]2O)C[C@@H]2O[C@](O)(C[C@@H](O)C[C@@H](O)[C@H](O)CC[C@@H](O)C[C@@H](O)CC(=O)O[C@H]1C)C[C@H](O)[C@H]2C(=O)O [amphotericin B] | 2.2 |
| C[C@H]1[C@H](C)CC[C@]2(C(=O)O)CC[C@]3(C)C(=CC[C@@H]4[C@@]5(C)C[C@@H](O)[C@H](O)[C@@](C)(CO)[C@@H]5CC[C@]43C)[C@H]12 [asiatic acid] | > 40 |
| CN(C)c1ccc2nc3ccc(N)cc3[s+]c2c1 [azure A] | 0.4 |
| CCN(CCO)c1ccc(/N=N/c2sc3cc(OC)ccc3[n+]2C)cc1 [basic blue 41] | 1.4 |
| Nc1ccc(N=Nc2ccc(-c3ccc(N=Nc4c(S(=O)(=O)O)cc5cc(S(=O)(=O)O)c(N=Nc6ccccc6)c(O)c5c4N)cc3)cc2)c(N)c1 [chlorazol black E] | 0.3 |
| O=C(/C=C/c1ccc(O)c(O)c1)O[C@@H]1C[C@](O)(C(=O)O)C[C@@H](O)[C@H]1O [chlorogenic acid] | > 40 |
| CN(C)CCCN1c2ccccc2Sc2ccc(Cl)cc21 [chlorpromazine hydrochloride] | > 40 |
| Oc1cc(O)c2cc(O)c(-c3ccc(O)c(O)c3)[o+]c2c1 [cyanidin] | 4 |

| Molecule | IC50 [µM] |
| --- | --- |
| O=c1c(-c2ccc(O)cc2)coc2cc(O)ccc12 [daidzein] | > 40 |
| COc1cccc2c1C(=O)c1c(O)c3c(c(O)c1C2=O)C[C@@](O)(C(C)=O)C[C@@H]3O[C@H]1C[C@H](N)[C@H](O)[C@H](C)O1 [daunorubicin hydrochloride] | 1.4 |
| Oc1cc(O)c2cc(O)c(-c3cc(O)c(O)c(O)c3)[o+]c2c1 [delphinidin] | 3 |
| O=C(O[C@@H]1Cc2c(O)cc(O)cc2O[C@@H]1c1ccc(O)c(O)c1)c1cc(O)c(O)c(O)c1 [epicatechin 3-gallate] | 3 |
| Oc1cc(O)c2c(c1)O[C@H](c1ccc(O)c(O)c1)[C@H](O)C2 [epicatechin] | > 40 |
| O=C(O[C@@H]1Cc2c(O)cc(O)cc2O[C@@H]1c1cc(O)c(O)c(O)c1)c1cc(O)c(O)c(O)c1 [epigallocatechin gallate] | 2 |
| Oc1cc(O)c2c(c1)O[C@H](c1cc(O)c(O)c(O)c1)[C@H](O)C2 [epigallocatechin] | 7 |
| O=C(c1cc(O)c(O)c(O)c1)c1ccc(O)c(O)c1O [exifone] | 0.7 |
| CCCCC[C@@H](O)[C@H]1C(=O)O[C@H](C)[C@@H](O)/C=C/C=C/C=C/C=C/C=C(\C)[C@@H](O)C[C@H](O)C[C@H](O)C[C@H](O)C[C@H](O)C[C@H](O)C[C@@H]1O [filipin III] | 14.6 |
| Oc1cc(O)c2c(c1)O[C@H](c1cc(O)c(O)c(O)c1)[C@@H](O)C2 [gallocatechin] | 7 |
| CCCCC[C@H](O)CC(=O)CCc1ccc(O)c(OC)c1 [gingerol] | 25 |
| C[C@@H]1C(=O)O[C@H]2C[C@@]34[C@H]5C[C@@H](C(C)(C)C)[C@]36[C@@H](OC(=O)[C@@H]6O)O[C@@]4(C(=O)O5)[C@]21O [ginkgolide A] | > 40 |
| CC1C(=O)OC2C(O)C34C5CC(C(C)(C)C)C36C(OC(=O)C6O)OC4(C(=O)O5)C12O (centres unmarked) [ginkgolide B] | 11 |
| O=c1c(O)c(-c2ccc(O)c(O)c2)oc2c(O)c(O)cc(O)c12 [gossypetin] | 1.3 |
| O=c1cc(-c2ccc(Oc3c(O)cc4oc(-c5ccc(O)cc5)cc(=O)c4c3O)cc2)oc2cc(O)cc(O)c12 [hinokiflavone] | 5 |
| Cc1cc(O)c2c(=O)c3c(O)cc(O)c4c5c(O)cc(O)c6c(=O)c7c(O)cc(C)c8c1c2c(c34)c(c78)c65 [hypericin] | 0.9 |
| O=c1c(O)c(-c2ccc(O)cc2)oc2cc(O)cc(O)c12 [kaempferol] | 8 |
| O=c1cc2oc3cc(O)c(-c4ccc(O)cc4O)cc3nc-2cc1-c1ccc(O)cc1O [lacmoid] | 1.4 |
| C[C@H](CCC(=O)NCCS(=O)(=O)O)[C@H]1CC[C@H]2[C@@H]3[C@H](O)C[C@@H]4C[C@H](O)CC[C@]4(C)[C@H]3CC[C@]12C [laurochenodeoxycholic acid] | > 40 |
| O=c1cc(-c2ccc(O)c(O)c2)oc2cc(O)cc(O)c12 [luteolin] | 3 |
| C=CCc1ccc(O)c(-c2cc(CC=C)ccc2O)c1 [magnolol] | > 40 |
| CN(C)c1ccc(N=Nc2ccccc2)cc1 [methyl yellow] | 1.5 |

| Molecule | IC50 [µM] |
| --- | --- |
| CN(C)c1ccc2nc3ccc(=[N+](C)C)cc-3sc2c1 [methylene blue] | 2.3 |
| O=C1C[C@@H](c2ccc(O)cc2)Oc2cc(O)cc(O)c21 [naringenin] | 25 |
| OCCN1CCN(CCCN2c3ccccc3Sc3ccc(Cl)cc32)CC1 [perphenazine] | > 40 |
| Oc1cc(O)c2c(c1)O[C@H](c1ccc(O)c(O)c1)[C@H](O)[C@H]2c1c(O)cc(O)c2c1O[C@H](c1ccc(O)c(O)c1)[C@@H](O)C2 [procyanidin B1] | 14 |
| Oc1cc(O)c2c(c1)O[C@H](c1ccc(O)c(O)c1)[C@H](O)[C@H]2c1c(O)cc(O)c2c1O[C@H](c1ccc(O)c(O)c1)[C@H](O)C2 [procyanidin B2] | > 40 |
| CN(C)CCCN1c2ccccc2Sc2ccccc21 [promazine hydrochloride] | > 40 |
| CCC(=O)c1ccc2c(c1)N(CCCN(C)C)c1ccccc1S2 [propionylpromazine hydrochloride] | > 40 |
| O=c1c(O)c(-c2ccc(O)c(O)c2)oc2cc(O)cc(O)c12 [quercetin] | 5 |
| CCN(CC)CCCC(C)Nc1c2ccc(Cl)cc2nc2ccc(OC)cc12 (centres unmarked) [quinacrine] | 8.4 |
| CO[C@H]1/C=C/O[C@@]2(C)Oc3c(C)c(O)c4c(O)c(c(/C=N/N5CCN(C)CC5)c(O)c4c3C2=O)NC(=O)/C(C)=C\C=C\[C@H](C)[C@H](O)[C@@H](C)[C@@H](O)[C@@H](C)[C@H](OC(C)=O)[C@@H]1C [rifampicin] | 4.9 |
| O=C(/C=C/c1ccc(O)c(O)c1)O[C@H](Cc1ccc(O)c(O)c1)C(=O)O [rosmarinic acid] | 12 |
| C[C@@H]1O[C@@H](OC[C@H]2O[C@@H](Oc3c(-c4ccc(O)c(O)c4)oc4cc(O)cc(O)c4c3=O)[C@H](O)[C@@H](O)[C@@H]2O)[C@H](O)[C@H](O)[C@H]1O [rutin] | 32 |
| c1cc2c(cc1[C@H]1OC[C@H]3[C@@H]1CO[C@@H]3c1ccc3c(c1)OCO3)OCO2 [sesamin] | > 40 |
| C[C@H](CCC(=O)NCCS(=O)(=O)O)[C@H]1CC[C@H]2[C@@H]3CC[C@@H]4C[C@H](O)CC[C@]4(C)[C@H]3CC[C@]12C [taurolithocholic acid] | > 40 |
| C[C@H](CCC(=O)NCCS(=O)(=O)O)[C@H]1CC[C@H]2[C@@H]3CC[C@@H]4C[C@H](OS(=O)(=O)O)CC[C@]4(C)[C@H]3CC[C@]12C [taurolithocholic aicd 3-sulfate] | > 40 |
| C[C@H](CCC(=O)NCCS(=O)(=O)O)[C@H]1CC[C@H]2[C@@H]3[C@@H](O)C[C@@H]4C[C@H](O)CC[C@]4(C)[C@H]3CC[C@]12C [tauroursodeoxycholic acid] | > 40 |
| ginkgolide C | > 40 |
| phthalocyanine tetrasulfonate | 3.2 |
| taurohydroxycholic acid | > 40 |
| theaflavone | 2 |
| tocopherol | > 40 |
